Three molecules from patent publication US6766183B2, “Long wave fluorophore sensor compounds and other fluorescent sensor compounds in polymers” (Medtronic MiniMed, Inc., priority 1995, dated 2004) can be followed below.

The nature of data set [1]: Glucose transduction of Nile Blue boronate: fluorescence in DMSO/PBS, ex 621 nm, em 671 nm. The conditions noted are these: for fluorescent intensity increase at 671 nm: ex 621 nm, relative to blank, listed as 1; for fluorescent intensity increase at 671 nm / increase in fluorescent intensity at 671 nm: DMSO/PBS; for increase in fluorescent intensity at 671 nm: separate batch. As for the experimental part:
A typical embodiment of the invention uses Nile Blue as an illustrative oxazine-based fluorophore.
Results: After work-up, the reaction was concentrated to dryness. A sample of the blue residue (˜1 mg), dissolved in DMSO (1 ml), was aliquoted (100 □ L) and dissolved in PBS (20 mL). […] A control fluorescence experiment was performed containing Nile Blue A using the same conditions as mentioned above.
(§1) To a round bottom flask, equipped with a reflux condenser under N2, containing Nile Blue perchlorate salt (42 mg, 0.1 mmol), boronate (28 mg, 0.1 mmoles) and K2CO3 (˜1 g) was added CH3CN (25 mL). The reaction was heated at reflux for 24 hours after which the solvent evaporated and the reaction went to dryness. The sample of the reaction mixture (1 mg, 2.21 mole) was dissolved in DMSO (1 mL). An aliquot (100 μL) was dissolved in PBS (20 mL). A sample of this solution (3 mL) was placed into the fluorolog and fluorescent measurements were made (ex=621 nm, slits at 10 and 20) at various glucose concentrations (0 mg/dL, 150 mg/dL, 300 mg/dL and 450 mg/dL) with a sampling interval of 45 min.
To a round bottom flask, equipped with a reflux condenser under N2, containing Nile Blue perchlorate salt (42 mg, 0.1 mmol), boronate (22 mg, 0.1 mmoles) and K2CO3 (˜1 g) was added CH3CN (25 mL). […] The sample of the reaction mixture (1 mg, […]) was dissolved in DMSO (1 mL). An aliquot (100 μL) was dissolved in PBS (20 mL). A sample of this solution (3 mL) was placed into the fluorolog and fluorescent measurements were made (ex=621 nm, slits at 10 and 20) at various glucose concentrations (0 mg/dL, 150 mg/dL, 300 mg/dL and 450 mg/dL) with a sampling interval of 45 min.
as §1, with “[…])” for “mole)”

The nature of data set [2]: Fluorescence excitation and emission wavelengths. In kind it is physicochemical. The conditions noted are these: aqueous PBS; for maximum emission wavelength: irradiated at 621 nm. The text has this:
An exemplary oxazine-based biosensor molecule of the present invention utilizes Nile blue as the fluorophore as shown in FIG. 2. The Nile blue-based biosensor molecule has an excitation wavelength of about 625 nm and a maximum emission wavelength of about 675 nm (see, e.g. FIGS. 8). Similar oxazine-based fluorophores suitable for use in embodiments of the present invention may include one or more functional groups selected from the following: aliphatic, aromatic, haloalkane, alcohol, ether, amine, cyano, nitro group, aldehyde, ketone, ester, carboxylic acid, sulfonic acid and phosphoric acid functional groups.
As illustrated above, the oxazine-based molecules in accordance with embodiments of the invention solve the problem of obtaining optimal optical transmission of fluorescence via implanted fluorescent reporter systems of in-vivo polyhydroxylate analyte concentrations. […] Particular embodiments of the biosensor molecules of the invention have at least one maximum wavelength in their emission spectra that is greater than about 600 nm and have at least one wavelength in their emission spectra that is greater than about 650 nm. An exemplary oxazine-based biosensor molecule in accordance with embodiments of the invention utilizes Nile Blue as a fluorophore. This Nile Blue biosensor molecule generally has an excitation wavelength of about 625 nm and an emission wavelength of about 675 nm in an aqueous Phosphate Buffered Saline (PBS) solution. Particular embodiments of the invention, however, may emit in the near infrared (IR) region of the spectrum.
Results: After work-up, the reaction was concentrated to dryness. A sample of the blue residue (˜1 mg), dissolved in DMSO (1 ml), was aliquoted (100 □ L) and dissolved in PBS (20 mL). A sample PBS solution (3 mL) contained in a cuvette and irradiated at 621 nm, gave rise to the appearance of a maximum emission peak at 671 nm. Successive additions of glucose (150 mg/dL), added to the cuvette, led to an increase in […] intensity, at 671 nm, after each addition. The first addition of glucose gave rise to a 7.5% increase in fluorescence at 671 nm. After the second addition of glucose, the intensity rose 14.3% relative to the blank. Addition of the third aliquot of glucose gave an 18.8% rise in fluorescent intensity relative to the blank. […] A control fluorescence experiment was performed containing Nile Blue A using the same conditions as mentioned above.

Data set [3] can be described thus: Glucose transduction in PBS, relative fluorescent intensity (FIG. 18 format). As for the experimental part: FIG. 18 is a graph showing Nile Blue boronate's transduction of glucose in PBS.
The figures provided herein further illustrate various embodiments of the invention and their properties in order to further facilitate artisans' making and using the invention. For example, using the graphic format provided in FIG. 18, experiments confirming properties of Nile Blue were performed with the following results: […]

Data set [4] is described as follows: Water solubility. It counts as physicochemical. The text has this:
Exemplary long wavelength glucose-sensing molecule containing an oxazine (Nile Blue) coupled with a phenyl boronate suitable for detection of glucose, following polymer incorporation, in vivo is shown in FIGS. 2 and 3. FIG. 2 provides a comparison of fluorescent excitations of representative fluorophores including the oxazine Nile Blue. The excitation and emission profile of anthracene based compounds are well below that of Nile Blue's fluorescent profile (see, e.g., FIG. 3). […] It is feasible to substitute other oxazines of similar structure for Nile Blue.

For Nile Blue Boronate, the “fluorescent intensity increase at 671 nm” value in data set [1] (glucose 150 mg/dL) is on record as 7.5%; in data set [1] (glucose 300 mg/dL) it was 14.3%; in data set [1] (glucose 450 mg/dL), 18.8%. Also, the glucose transduction entry in data set [1] (in water) was “transduces glucose exceptionally well”. For the same molecule, the results for the “increase in fluorescent intensity at 671 nm” value in data set [1] (glucose 150 mg/dL (first addition)), in data set [1] (glucose 300 mg/dL (second addition)) and in data set [1] (glucose 450 mg/dL (third addition)) were 23.4%, 37.8% and 47.4%, respectively. Also, in data set [2], the excitation wavelength result is reported as “about 625 nm”. Further, the maximum emission wavelength is given as 671 nm in data set [2] (listed as 1), “about 675 nm” in data set [2] (listed as Nile Blue biosensor molecule) and “about 675 nm” in data set [2] (listed as Nile blue-based biosensor molecule).

On to Nile Blue A, for which the relative fluorescent intensity in data set [3] (glucose 0 mg/dl) was 1.0; in data set [3] (glucose 150 mg/dl), 1.085; in data set [3] (glucose 300 mg/dl), 1.239; in data set [3] (glucose 450 mg/dl) it was 1.398; in data set [3] (glucose 1000 mg/dl), 1.513.

With `CC[N+](CC)=c1ccc2nc3c(cc(N)c4ccccc43)oc-2c1` [Nile Blue, Nile Blue A, reference compound], the “glucose transduction (control experiment)” value in data set [1] (DMSO/PBS solutions, same conditions as the boronate) was “incapable of transducing glucose”. For the same molecule, the solubility in water entry in data set [4] is on record as “highly soluble in water”.
